Results from patent publication US20240425480A1, “NOVEL PYRIDINE DERIVATIVE COMPOUND AS RON INHIBITOR” (LG CHEM, LTD., priority 2021, published 2024).
pIC50: −log10 of the molar value.

Columns and labels:
cMET = cMET (Homo sapiens, UniProt P08581); assay: Inhibitory activity against MET (cMET), TR-FRET kinase assay; type: biochemical; details: TR-FRET enzyme assay
Outline: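 Human cMET (2 nM dilution) preincubated with compound 20-30 min at room temperature in HEPES pH 7.4 buffer with MnCl2/MgCl2, then 60 min with TK peptide and ATP substrate cocktail (5 uM peptide, 10 mM ATP, prepared at 2× final). EDTA-stopped; europium anti-phosphotyrosine TR-FRET read at 620/665 nm; pIC50 derived.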

RON = RON (Homo sapiens, UniProt Q04912); assay: Inhibitory activity against RON, TR-FRET kinase assay; type: biochemical; details: TR-FRET enzyme assay
Sequence of RON (Q04912 25-1400, species assumed): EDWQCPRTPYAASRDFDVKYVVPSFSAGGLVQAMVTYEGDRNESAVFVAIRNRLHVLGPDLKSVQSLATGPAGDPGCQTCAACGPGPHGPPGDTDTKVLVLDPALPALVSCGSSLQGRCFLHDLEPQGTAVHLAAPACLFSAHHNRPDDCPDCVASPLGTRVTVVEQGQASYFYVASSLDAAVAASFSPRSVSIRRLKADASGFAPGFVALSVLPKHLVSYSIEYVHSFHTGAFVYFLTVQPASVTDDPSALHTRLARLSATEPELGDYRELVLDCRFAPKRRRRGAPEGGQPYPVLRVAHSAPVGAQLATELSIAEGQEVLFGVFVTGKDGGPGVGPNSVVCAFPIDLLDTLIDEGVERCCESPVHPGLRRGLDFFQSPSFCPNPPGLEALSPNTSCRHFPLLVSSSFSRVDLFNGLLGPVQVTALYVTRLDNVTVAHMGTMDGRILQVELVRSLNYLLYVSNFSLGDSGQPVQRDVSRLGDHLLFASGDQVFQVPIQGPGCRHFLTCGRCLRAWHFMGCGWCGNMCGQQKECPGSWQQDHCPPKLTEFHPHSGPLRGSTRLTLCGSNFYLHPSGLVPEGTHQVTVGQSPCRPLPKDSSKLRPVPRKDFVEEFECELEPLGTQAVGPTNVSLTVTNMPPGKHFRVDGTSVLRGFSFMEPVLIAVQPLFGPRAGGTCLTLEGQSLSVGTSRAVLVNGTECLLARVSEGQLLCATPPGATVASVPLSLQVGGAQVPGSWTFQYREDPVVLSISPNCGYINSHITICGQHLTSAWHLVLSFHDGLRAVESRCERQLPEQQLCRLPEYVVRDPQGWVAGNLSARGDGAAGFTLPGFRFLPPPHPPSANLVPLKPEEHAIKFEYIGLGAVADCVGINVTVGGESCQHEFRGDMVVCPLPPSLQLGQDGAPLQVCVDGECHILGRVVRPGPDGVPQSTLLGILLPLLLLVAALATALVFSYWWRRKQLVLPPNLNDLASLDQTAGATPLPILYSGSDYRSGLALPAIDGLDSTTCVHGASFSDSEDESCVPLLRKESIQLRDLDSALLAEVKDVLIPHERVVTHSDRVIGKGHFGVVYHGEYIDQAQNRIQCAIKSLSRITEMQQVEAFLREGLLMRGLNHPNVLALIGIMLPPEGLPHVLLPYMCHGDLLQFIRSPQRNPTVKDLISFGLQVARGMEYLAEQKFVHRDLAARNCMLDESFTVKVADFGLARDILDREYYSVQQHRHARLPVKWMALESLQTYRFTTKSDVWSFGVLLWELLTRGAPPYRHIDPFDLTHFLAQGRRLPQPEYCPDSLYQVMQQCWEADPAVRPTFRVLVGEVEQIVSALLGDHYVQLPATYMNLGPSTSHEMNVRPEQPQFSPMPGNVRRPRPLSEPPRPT
Outline: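 Compounds (3-fold series from a 1 mM DMSO stock) were preincubated 20–30 min at RT with RON (0.4 nM solution) in pH 7.4 HEPES, 10 mM MgCl2 buffer. A 2× cocktail of 40 uM ULight-Poly GT and 100 nM ATP was then added for 60 min at RT. After EDTA stop, Eu anti-phosphotyrosine TR-FRET (665/620 nm) was read and IC50 derived.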

Sequence of cMET (P08581 25-1390): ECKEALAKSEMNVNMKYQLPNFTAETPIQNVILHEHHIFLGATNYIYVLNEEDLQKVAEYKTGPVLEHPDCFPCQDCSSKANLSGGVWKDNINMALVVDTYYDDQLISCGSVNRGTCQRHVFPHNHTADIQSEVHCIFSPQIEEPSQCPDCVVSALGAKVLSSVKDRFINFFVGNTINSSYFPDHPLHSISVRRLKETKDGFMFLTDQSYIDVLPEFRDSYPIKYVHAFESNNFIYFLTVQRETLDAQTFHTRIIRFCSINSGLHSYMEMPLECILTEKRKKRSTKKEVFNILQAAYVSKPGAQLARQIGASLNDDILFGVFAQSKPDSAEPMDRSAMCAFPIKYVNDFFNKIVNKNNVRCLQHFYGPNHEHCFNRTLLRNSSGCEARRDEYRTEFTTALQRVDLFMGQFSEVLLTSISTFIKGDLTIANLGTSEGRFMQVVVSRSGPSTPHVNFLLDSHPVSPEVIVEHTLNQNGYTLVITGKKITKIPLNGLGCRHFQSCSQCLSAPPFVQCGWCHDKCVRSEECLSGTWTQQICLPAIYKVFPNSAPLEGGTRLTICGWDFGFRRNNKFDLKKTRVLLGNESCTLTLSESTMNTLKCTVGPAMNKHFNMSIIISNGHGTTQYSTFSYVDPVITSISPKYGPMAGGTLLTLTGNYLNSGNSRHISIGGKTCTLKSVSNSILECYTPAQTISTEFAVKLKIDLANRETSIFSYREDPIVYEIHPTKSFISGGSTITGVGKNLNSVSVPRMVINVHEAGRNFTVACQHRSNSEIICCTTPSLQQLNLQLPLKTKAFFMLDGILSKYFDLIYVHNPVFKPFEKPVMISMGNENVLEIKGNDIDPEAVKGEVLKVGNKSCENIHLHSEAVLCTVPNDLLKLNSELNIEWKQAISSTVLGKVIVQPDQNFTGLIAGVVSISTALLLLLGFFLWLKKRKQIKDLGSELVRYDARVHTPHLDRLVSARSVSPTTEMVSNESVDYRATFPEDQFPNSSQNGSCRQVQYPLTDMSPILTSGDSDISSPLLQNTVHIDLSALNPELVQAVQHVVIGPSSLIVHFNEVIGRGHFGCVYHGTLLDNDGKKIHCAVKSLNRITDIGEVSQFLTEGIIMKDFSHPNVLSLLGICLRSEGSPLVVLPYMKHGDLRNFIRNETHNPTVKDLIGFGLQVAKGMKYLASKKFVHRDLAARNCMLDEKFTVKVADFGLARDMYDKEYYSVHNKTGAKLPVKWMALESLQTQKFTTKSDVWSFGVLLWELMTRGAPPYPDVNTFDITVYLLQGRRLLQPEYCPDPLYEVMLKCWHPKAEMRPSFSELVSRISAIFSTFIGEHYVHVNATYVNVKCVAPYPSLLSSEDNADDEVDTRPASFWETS

SMILES	pIC50 (cMET)	pIC50 (RON)
Cc1ccnc(-n2ncc(C(=O)Nc3ccc(Oc4ncnc(N)c4Cl)c(F)c3)c2C(F)(F)F)n1 [Example 62, N-[4-(6-amino-5-chloro-pyrimidin-4-yl)oxy-3-fluoro-phenyl]-1-(4-methylpyrimidin-2-yl)-5-(trifluoromethyl)pyrazole-4-carboxamide]	< 5.30	6.30 to 7.30
O=C(Nc1ccc(Oc2ncnc(NC3CC3)c2Cl)c(F)c1)c1cnn(-c2ncccc2F)c1C(F)(F)F [Example 65, N-[4-[5-chloro-6-(cyclopropylamino)pyrimidin-4-yl]oxy-3-fluoro-phenyl]-1-(3-fluoro-2-pyridyl)-5-(trifluoromethyl)pyrazole-4-carboxamide]	< 5.30	5.30 to 6.30
O=C(Nc1ccc(Oc2ncnc(NC3CC3)c2Cl)c(F)c1)c1cnn(-c2ncccc2Cl)c1C(F)(F)F [Example 66, N-[4-[5-chloro-6-(cyclopropylamino)pyrimidin-4-yl]oxy-3-fluoro-phenyl]-1-(3-chloro-2-pyridyl)-5-(trifluoromethyl)pyrazole-4-carboxamide]	< 5.30	< 5.30

Now from value to compound:

pIC50 (cMET)	pIC50 (RON)	SMILES
< 5.30	5.30 to 6.30	Nc1ncnc(Oc2ccc(NC(=O)c3cnn(-c4ccncn4)c3C(F)(F)F)cc2F)c1Cl [Example 61, N-[4-(6-amino-5-chloro-pyrimidin-4-yl)oxy-3-fluoro-phenyl]-1-pyrimidin-4-yl-5-(trifluoromethyl)pyrazole-4-carboxamide]
< 5.30	6.30 to 7.30	Nc1ncnc(Oc2ccc(NC(=O)c3cnn(-c4cc(F)ccn4)c3C(F)(F)F)cc2F)c1Cl [Example 63, N-[4-(6-amino-5-chloro-pyrimidin-4-yl)oxy-3-fluoro-phenyl]-1-(4-fluoro-2-pyridyl)-5-(trifluoromethyl)pyrazole-4-carboxamide]
< 5.30	6.30 to 7.30	Nc1ncnc(Oc2ccc(NC(=O)c3cnn(-c4cc(O)ccn4)c3C(F)(F)F)cc2F)c1Cl [Example 64, N-[4-(6-amino-5-chloro-pyrimidin-4-yl)oxy-3-fluoro-phenyl]-1-(4-hydroxy-2-pyridyl)-5-(trifluoromethyl)pyrazole-4-carboxamide]
